From patent US11306081B2, “Phenylacetamides as inhibitors of rock” (BRISTOL-MYERS SQUIBB COMPANY, priority 2017, dated 2022)

biological target: ROCK2 (Homo sapiens (Human), UniProt O75116); experiment: ROCK assay (LABCHIP 3000 peptide phosphorylation assay); format: biochemical; settings: 5 μM ATP, 1.5 μM peptide substrate, dose-response
Procedure: The effectiveness of compounds of the present invention as ROCK inhibitors can be determined in a 30 μL assay containing 20 mM HEPES, pH 7.5, 20 mM MgCl2, 0.015% Brij-35, 4 mM DTT, 5 μM ATP and 1.5 μM peptide substrate (FITC-AHA-AKRRRLSSLRA-OH) (SEQ ID No. 1). Compounds were dissolved in DMSO so that the final concentration of DMSO was <2%, and the reaction was initiated with Rho kinase variants. After incubation, the reaction was terminated by the addition of EDTA and the phosphorylated and non-phosphorylated peptides separated using a LABCHIP® 3000 Reader (Caliper Life Sciences). […] Compounds were tested in dose-response format, and the inhibition of kinase activity was calculated at each concentration of compound. The inhibition data were fit using a curve-fitting program to determine the IC50; i.e., the concentration of compound required to inhibit 50% of kinase activity.

ROCK2, sequence (O75116 whole entry, species assumed): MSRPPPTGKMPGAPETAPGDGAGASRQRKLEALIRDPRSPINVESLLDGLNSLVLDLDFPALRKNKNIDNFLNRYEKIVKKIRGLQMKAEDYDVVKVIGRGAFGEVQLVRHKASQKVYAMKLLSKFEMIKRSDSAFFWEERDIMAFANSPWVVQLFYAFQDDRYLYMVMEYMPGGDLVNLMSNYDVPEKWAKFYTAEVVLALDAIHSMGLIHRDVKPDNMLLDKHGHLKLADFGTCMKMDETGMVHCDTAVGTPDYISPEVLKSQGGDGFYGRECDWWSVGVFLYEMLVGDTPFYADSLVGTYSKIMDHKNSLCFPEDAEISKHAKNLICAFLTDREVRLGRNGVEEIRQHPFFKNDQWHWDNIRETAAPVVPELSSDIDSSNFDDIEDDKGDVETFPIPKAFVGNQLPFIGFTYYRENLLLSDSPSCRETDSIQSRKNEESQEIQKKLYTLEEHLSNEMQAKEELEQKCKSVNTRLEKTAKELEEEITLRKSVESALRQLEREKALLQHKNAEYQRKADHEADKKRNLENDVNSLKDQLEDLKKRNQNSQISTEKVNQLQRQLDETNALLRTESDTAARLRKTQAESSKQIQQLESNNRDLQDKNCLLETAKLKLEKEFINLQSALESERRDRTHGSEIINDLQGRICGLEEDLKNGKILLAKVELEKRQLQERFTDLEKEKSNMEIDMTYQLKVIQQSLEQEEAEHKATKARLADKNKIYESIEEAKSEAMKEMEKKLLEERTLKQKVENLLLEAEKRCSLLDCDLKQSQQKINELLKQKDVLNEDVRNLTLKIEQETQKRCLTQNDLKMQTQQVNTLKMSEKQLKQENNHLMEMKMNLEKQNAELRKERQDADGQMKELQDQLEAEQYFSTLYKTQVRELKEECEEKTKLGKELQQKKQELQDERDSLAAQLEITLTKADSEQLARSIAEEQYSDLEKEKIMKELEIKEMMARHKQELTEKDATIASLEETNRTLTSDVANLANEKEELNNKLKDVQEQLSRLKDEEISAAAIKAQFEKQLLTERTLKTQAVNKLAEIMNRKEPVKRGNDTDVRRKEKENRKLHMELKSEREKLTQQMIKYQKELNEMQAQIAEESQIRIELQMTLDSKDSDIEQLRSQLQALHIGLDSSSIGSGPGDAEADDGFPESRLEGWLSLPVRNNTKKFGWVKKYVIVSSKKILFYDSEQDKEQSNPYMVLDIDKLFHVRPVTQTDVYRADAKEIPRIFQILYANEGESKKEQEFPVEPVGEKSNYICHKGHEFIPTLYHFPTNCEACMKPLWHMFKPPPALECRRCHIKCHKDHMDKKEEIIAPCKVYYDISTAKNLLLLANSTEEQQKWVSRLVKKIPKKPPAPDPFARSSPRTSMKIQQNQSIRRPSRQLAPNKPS

| SMILES | IC50 |
| --- | --- |
| Cc1ccc(-c2nc(NC(=O)Cc3ccc(Oc4ncccc4C(N)=O)cc3)sc2C)cc1Cl [Example 050, 2-(4-(2-((4-(3-chloro-4-methylphenyl)-5-methylthiazol-2-yl)amino)-2-oxoethyl)phenoxy) nicotinamide] | 175 nM |
| COc1cccn2nc(NC(=O)Cc3ccc(Oc4ncccc4C(N)=O)c(Cl)c3)nc12 [Example 082, 2-(2-chloro-4-(2-((8-methoxy-[1,2,4]triazolo[1,5-a]pyridin-2-yl)amino)-2-oxoethyl)phenoxy) nicotinamide] | 6 nM |
| Cc1cccc(Nc2ncnc3ccc(NC(=O)Cc4ccc(Oc5ncccc5C(N)=O)cc4)cc23)c1 [Example 077, 2-(4-(2-oxo-2-((4-(m-tolylamino)quinaz-olin-6-yl)amino)ethyl)phe-noxy)nicotinamide] | 42 nM |
| Cn1cc(-c2ccc3nc(NC(=O)Cc4ccc(Oc5ncccc5C(N)=O)c(F)c4)cn3c2)cn1 [Example 036, 2-(2-fluoro-4-(2-((6-(1-methyl-1H-pyrazol-4-yl)imidazo[1,2-a]pyridin-2-yl)amino)-2-oxoethyl)phenoxy)nico-tinamide] | 48 nM |
| Cc1sc(NC(=O)Cc2ccc(Oc3ncccc3C(N)=O)cc2)nc1-c1ccccc1 [Example 016, 2-(4-(2-((5-methyl-4-phenylthiazol-2-yl)amino)-2-oxoethyl)phenoxy) nicotinamide] | 87 nM |
| NC(=O)c1cccnc1Oc1ccc(CC(=O)Nc2nc3ccccc3o2)cc1 [Example 054, 2-(4-(2-(benzo[d]oxazol-2-ylamino)-2-oxoethyl)phenoxy) nicotinamide] | 364 nM |
| NC(=O)c1cccnc1Oc1ccc(CC(=O)Nc2nc(-c3ccccc3)cs2)cc1 [Example 052, 2-(4-(2-oxo-2-((4-phenylthiazol-2-yl)amino)ethyl)phe-noxy)nicotinamide] | 177 nM |
| Cn1ccc(-c2csc(NC(=O)Cc3ccc(Oc4ncccc4C(N)=O)c(F)c3)n2)cc1=O [Example 017, 2-(2-fluoro-4-(2-((4-(1-methyl-2-oxo-1,2-dihydropyridin-4-yl)thiazol-2-yl)amino)-2-oxoethyl)phenoxy)nicotinamide] | 404 nM |
| CC(C)(O)COc1ccn2nc(NC(=O)Cc3ccc(Oc4ncccc4C(N)=O)c(F)c3)nc2c1 [Example 110, 2-(2-fluoro-4-(2-((7-(2-hydroxy-2-methylpropoxy)-[1,2,4]triazolo[1,5-a]pyridin-2-yl)amino)-2-oxoethyl)phenoxy)nicotinamide] | 36 nM |
| CS(=O)(=O)c1ccc2nc(NC(=O)Cc3ccc(Oc4ncccc4C(N)=O)cc3)sc2c1 [Example 076, 2-(4-(2-((6-(methylsulfonyl)benzo[d]thiazol-2-yl)amino)-2-oxoethyl)phenoxy) nicotinamide] | 332 nM |
| NC(=O)c1cccnc1Oc1ccc(CC(=O)Nc2nnc(C3CC3)s2)cc1F [Example 092, 2-(4-(2-((5-cyclopropyl-1,3,4-thiadiazol-2-yl)amino)-2-oxoethyl)-2-fluorophenoxy)nico-tinamide] | 361 nM |
| NC(=O)c1cccnc1Oc1ccc(CC(=O)Nc2nc3cccc(Cl)c3[nH]2)cc1 [Example 073, 2-(4-(2-((7-chloro-1H-benzo[d]imidazol-2-yl)amino)-2-oxoethyl)phenoxy) nicotinamide] | 244 nM |
| Cc1sc(NC(=O)Cc2ccc(Oc3ncccc3C(N)=O)c(F)c2)nc1-c1ccccn1 [Example 087, 2-(2-fluoro-4-(2-((5-methyl-4-(pyridin-2-yl)thiazol-2-yl)amino)-2-oxoethyl)phenoxy) nicotinamide] | 47 nM |
| NC(=O)c1cccnc1Oc1ccc(CC(=O)Nc2nc(-c3cccc4oc(=O)ccc34)cs2)cc1 [Example 061, 2-(4-(2-oxo-2-((4-(2-oxo-2H-chromen-5-yl)thiazol-2-yl)amino)ethyl)phe-noxy)nicotinamide] | 506 nM |

The next lines start with the values.

| IC50 | SMILES |
| --- | --- |
| 25 nM | NC(=O)c1cccnc1Oc1ccc(CC(=O)Nc2nc3cc(-c4cnn(C(F)F)c4)ccn3n2)cc1F [Example 135, 2-(4-(2-((7-(1-(difluoro-methyl)-1H-pyrazol-4-yl)-[1,2,4]-triazolo[1,5-a]pyridin-2-yl)amino)-2-oxoethyl)-2-fluorophen-oxy)nicotin-amide] |
| 23 nM | COc1ccc2c(c1)nc(NC(=O)Cc1ccc(Oc3ncccc3C(N)=O)c(F)c1)n2CC(F)F [Example 120, 2-(4-(2-((1-(2,2-difluoroethyl)-5-methoxy-1H-benzo[d]imidazol-2-yl)amino)-2-oxoethyl)-2-fluorophenoxy)nicotinamide] |
| 39 nM | COc1ccc2nc(NC(=O)Cc3ccc(Oc4ncccc4C(N)=O)c(F)c3)n(CC3CC3)c2c1 [Example 160, 2-(4-(2-((1-(cyclopropyl-methyl)-6-methoxy-1H-benzo[d]-imidazol-2-yl)-amino)-2-oxoethyl)-2-fluorophenoxy)-nicotinamide] |
| 139 nM | COc1ccc2sc(NC(=O)Cc3ccc(Oc4ncccc4C(N)=O)c(OC)c3)nc2c1 [Example 117, 2-(2-methoxy-4-(2-((5-methoxybenzo[d]thiazol-2-yl)amino)-2-oxoethyl)phenoxy)nicotinamide] |
| 25 nM | NC(=O)c1cccnc1Oc1ccc(CC(=O)Nc2nc3ccccc3n2CC2CC2)cc1F [Example 167, 2-(4-(2-((1-(cyclo-propylmethyl)-1H-benzo[d]-imidazol-2-yl)-amino)-2-oxo-ethyl)-2-fluoro-phenoxy)nicotin-amide] |
| 6 nM | NC(=O)c1cccnc1Oc1ccc(CC(=O)Nc2nc3cc(OCc4ccccc4)ccn3n2)cc1F [Example 143, 2-(4-(2-((7-(benzyloxy)-[1,2,4]triazolo[1,5-a]pyridin-2-yl)amino)-2-oxoethyl)-2-fluorophenoxy)nicotinamide] |
| 218 nM | CC(C)n1c(NC(=O)Cc2ccc(Oc3ncccc3C(N)=O)c(F)c2)nc2ccccc21 [Example 153, 2-(2-fluoro-4-(2-((1-isopropyl-1H-benzo[d]imidazol-2-yl)amino)-2-oxoethyl)-phenoxy)nicotinamide] |
| 18 nM | NC(=O)c1cccnc1Oc1ccc(CC(=O)Nc2nc3ccc(F)cc3n2CC2CC2)cc1F [Example 168, 2-(4-(2-((1-(cyclopropyl-methyl)-6-fluoro-1H-benzo[d]-imidazol-2-yl)-amino)-2-oxo-ethyl)-2-fluoro-phenoxy)nicotin-amide] |
| 12 nM | COc1ccn2nc(NC(=O)Cc3ccc(Oc4ncccc4C(N)=O)c(Cl)c3)nc2c1 [Example 125, 2-(2-chloro-4-(2-((7-methoxy-[1,2,4]triazolo-[1,5-a]pyridin-2-yl)amino)-2-oxoethyl)phenoxy)-nicotinamide] |
| 129 nM | Cc1ccc2nc(NC(=O)Cc3ccc(Oc4ncccc4C(N)=O)c(F)c3)nn2c1C [Example 131, 2-(4-(2-((5,6-dimethyl-[1,2,4]-triazolo[1,5-a]-pyridin-2-yl)-amino)-2-oxoethyl)-2-fluorophenoxy)-nicotinamide] |
| 44 nM | NC(=O)c1cccnc1Oc1ccc(CC(=O)Nc2nc3cc(Br)ccn3n2)cc1F [Example 134, 2-(4-(2-((7-bromo-[1,2,4]triazolo[1,5-a]pyridin-2-yl)amino)-2-oxoethyl)-2-fluorophenoxy)nicotinamide] |
| 133 nM | CP(C)(=O)c1ccc2nc(NC(=O)Cc3ccc(Oc4ncccc4C(N)=O)c(F)c3)n(CC3CC3)c2c1 [Example 145, 2-(4-(2-((1-(cyclopropylmethyl)-6-(dimethylphosphoryl)-1H-benzo[d]imidazol-2-yl)amino)-2-oxoethyl)-2-fluorophenoxy)nicotinamide] |
